Test results published in PubChem BioAssay AID1845228.

Details: pampa; 60.0 min; 50.0 µM

Row | SMILES | Papp [×10⁻⁶ cm/s]
1 | Nc1nc2c(c(N3CCNCC3)n1)CCC1=C2[C@@H]2CCCC[C@@H]2O1 | 30
2 | CC(=O)NCCNC(=O)c1ccc(-c2ncc3cnc(-c4cccc(F)c4)cn23)cc1 | 11
3 | N=c1c2c(-c3ccccc3)cn(Cc3ccccc3)c2ncn1Cc1ccco1 | 226
4 | Cn1cc(C2=C(c3cn(CCCSC(=N)N)c4ccccc34)C(=O)NC2=O)c2ccccc21 | < 1
5 | N=c1c2c(-c3ccccc3)c(-c3ccccc3)n(Cc3ccccc3)c2ncn1CCO | 223
6 | Clc1ccc(CN[C@H]2CCN(c3ncc(Br)cn3)C2)c(Cl)c1 | > 300
7 | CCC1C(C)=NN=C(c2ccc(OC)c(OC)c2)c2cc(OC)c(OC)cc21 (stereo not drawn) | 91
8 | O=C(Nc1ncc([N+](=O)[O-])s1)c1ccccc1O | 8
9 | O=C(N/N=C/c1ccc(O)c(O)c1)c1cc2ccccc2cc1O | 5
10 | CC1=C2C[C@H]3[C@@H](CC[C@@H]4C[C@H](NS(C)(=O)=O)CC[C@@]43C)[C@@H]2CC[C@@]2(C1)O[C@@H]1C[C@H](C)CN[C@H]1[C@H]2C | 132
11 | CC1NC(C(=O)O)Cc2c1[nH]c1ccccc21 (stereo not drawn) | < 1
12 | O=C(Nc1cnn2ccc(N3CCC[C@@H]3c3cc(F)ccc3F)nc12)N1CC[C@H](O)C1 | 3
13 | CON=C(C(=O)N[C@@H]1C(=O)N2C(C(=O)O)=C(Cn3ccc(=N)n3CCO)CS[C@H]12)c1csc(N)n1 | < 1
14 | CCC(=O)N1CCN(c2ccc(-n3c(=O)ccc4cnc5ccc(-c6cnc7ccccc7c6)cc5c43)cc2C(F)(F)F)CC1 | 158
15 | O=C(Nc1ccccc1)N1CCC(Cc2cnc3ccccc3c2)CC1 | > 300
16 | CCOC(=O)[C@H](CCc1ccccc1)N[C@@H](C)C(=O)N1C(=O)N(C)C[C@H]1C(=O)O | < 1
17 | O=C(NCC1CCOCC1)c1cnc(Nc2ccc(Cl)cc2Cl)nc1C(F)(F)F | < 1
18 | N=c1c2c(-c3ccccc3)c(-c3ccccc3)n(Cc3ccccc3)c2ncn1C1CCC(O)CC1 (stereo not drawn) | 150
19 | C[N+](C)([O-])CCNc1ccc(NCC[N+](C)(C)[O-])c2c1C(=O)c1c(O)ccc(O)c1C2=O | 40

Row | SMILES | Papp [×10⁻⁶ cm/s]
20 | CO[C@@]1(NC(=O)C(C(=O)O)c2ccc(O)cc2)C(=O)N2C(C(=O)O)=C(CSc3nnnn3C)CO[C@@H]21 (stereo partly drawn) | < 1
21 | CCc1ccc(C2C(C(=O)Nc3ccccc3OC)=C(C)Nc3c(C(=O)Nc4ccc(C)cc4)cnn32)cc1 (stereo not drawn) | 26
22 | CC(NC(CCc1ccccc1)C(=O)O)C(=O)N1C(=O)N(C)CC1C(=O)O (stereo not drawn) | < 1
23 | N[C@@H](Cc1ccc(N(CCCl)CCCl)cc1)C(=O)O | 131
24 | O=C(O)c1cc2ccccc2c(Cc2c(O)c(C(=O)O)cc3ccccc23)c1O | 3
25 | COC(=O)c1cccc(Cn2cnc3c(c(-c4ccccc4)c(-c4ccccc4)n3CCc3ccccc3)c2=N)c1 | 27
26 | O=C(NCCCO)c1ccc(-c2ncc3cnc(-c4cccc(F)c4)cn23)cc1 | 46
27 | OC[C@H]1O[C@@H](n2cnc3c(NCc4ccc(O)cc4)ncnc32)[C@H](O)[C@@H]1O | < 1
28 | COc1ccc(Cn2c(-c3ccccc3)c(-c3ccccc3)c3c(=N)n(CC4CCCO4)cnc32)cc1 (stereo not drawn) | 297
29 | Cn1nnnc1Sc1ncnc2scc(-c3ccc[nH]3)c12 | 126
30 | CCN(CC)CCNc1ccc(C)c2sc3ccccc3c(=O)c12 | > 300
31 | O=C(O)[C@@H]1C[C@H]2C[C@@H](CCc3nn[nH]n3)CC[C@H]2CN1 | 3
32 | COc1ccc(CCn2cnc3c(c(-c4ccccc4)cn3Cc3ccccc3)c2=N)cc1OC | 284
33 | CC(=O)Nc1ccc(OC(=O)c2ccccc2OC(C)=O)cc1 | 27
34 | Cc1ccc(-n2c(C)cc(-c3nnc4n3CCCCC4)c2C)cc1 | 192
35 | N=c1c2c(-c3ccccc3)cn(Cc3ccc(Br)cc3)c2ncn1CCCN1CCN(c2ccccc2)CC1 | 151
36 | NC(=O)c1ccc(-c2ncc3cnc(-c4cccc(F)c4)cn23)cc1 | 242
37 | CC(Oc1ccccc1)C(=O)N[C@@H]1C(=O)N2[C@@H]1SC(C)(C)[C@@H]2C(=O)O (stereo partly drawn) | 25
38 | CCOC(=O)c1cc(=O)c2c(OCC(COc3cccc4oc(C(=O)OCC)cc(=O)c34)OC(=O)[C@@H](N)CCCCN)cccc2o1 | < 1
